Assay [1] concerns Cricetinae gen. sp. Format: functional. Conditions: at 100 mg/kg.
The test system of assay [2] is Cricetinae gen. sp. It counts as functional. As to conditions: at 100 mg/kg. The source holds these as a separate data set.

In the case of `CC(C)OC(=O)C(C)(C)Oc1ccc(C(=O)c2ccc(Cl)cc2)cc1` [FENOFIBRATE], the results for the Efficacy in the assay with Cricetinae gen. sp. [1] and with Cricetinae gen. sp. [2] were -23% and -43%, respectively.
